From US6759385B1, “Methods to treat undesirable immune responses” (Regents of the University of Minnesota, priority 1997, dated 2004) come the findings set out here.

Data set [1] is described as follows: Distribution in the respiratory tract of solutions administered nasally. In kind it is in vivo, mouse. The settings on record: 25 μl of 4% solution into nostrils, 10-15 minutes. As for the experimental part:
Distribution in the Respiratory Tract of Solutions Administered Nasally. To determine which parts of the mouse respiratory system came in contact with solutions given nasally, a solution of ethidium bromide was employed. Ethidium bromide is absorbed through the mucosal lining of the respiratory tract and fluoresces brightly under U.V. light. Two mice were anesthetized and 25 μl of a 4% ethidium bromide solution in PBS was instilled into the nostrils. Ten-fifteen minutes later the animals were sacrificed by cervical dislocation. Their nasal cavities, larynx, trachea, bronchi and lungs were dissected, washed in PBS and examined under U.V. light for ethidium bromide staining.

Data set [2] deals with CD4+ cells of MG patients. Nature of the data set: Response of CD4+ T cells of MG patients to synthetic human AChR peptides. Conditions: irrespective of HLA class II type. In kind it is cell-based. The text has this:
Several studies have identified sequences of the human AChR α subunit recognized by T cells in MG patients. To determine whether the CD4^+ cells recognizing those immunodominant and/or universal epitope sequences can drive the synthesis of pathogenic anti-AChR antibodies, and how the ability of the different sequence regions of the AChR to interact with different HLA DR molecules correlates with the presence of universal CD4^+ epitopes, synthetic peptides based on the amino acid sequence of the human α subunit of AChR (Noda et al., Nature, 305, 818 (1983); Schoepfer et al., FEBS Lett., 226, 235 (1981)) were prepared. The peptides were approximately 20 residues long, a length that compares with that of naturally processed class II-restricted epitopes, which are 9-14 residues. […] The peptides overlapped by 5-10 residues to reduce the risk of missing epitopes “broken” between peptides.
The response to individual overlapping synthetic AChR peptides spanning the sequence of each AChR subunit, of unselected blood […], and of CD4^+ T cell lines enriched with AChR-specific cells by culture in vitro with ACHR antigens, was tested. The use of those two cell populations has different advantages and limitations. AChR-specific CD4+ lines have strong, consistent responses to individual peptides that allow a clear-cut assessment of their epitope repertoire. However, they may have an epitope repertoire different from that of the original CD4^+ population due to biased clonal propagation in vitro. Also, denatured forms of the antigen such as synthetic and biosynthetic peptides, which are commonly used for propagation of CD4+ cells specific for rare antigens, may be processed into peptide epitopes different from those obtained from processing of the native antigen in vivo and may expand […] irrelevant for the immune process in vivo. […]

For data set [3], the system named is established EMG in B6 mice. Nature of the data set: Subcutaneous treatment, post-priming protocol, established EMG (Example IV). In kind it is in vivo, mouse. As for the experimental part:
(§1) B6 mice (Jackson Laboratory, Bar Harbor, Me.) were injected s.c. with 100 μl of PBS containing increasing amounts of a pool of the same amount in weight of each of the three epitope peptides Tα150-169, Tα180-200 and Tα360-378 (‘peptide pool’), or 200 μg of Tα150-169 alone, or 100 μl of PBS containing 0.1% Triton X-100 and 10 μg of solubilized TAChR. Two different treatment schedules were used, referred to as prevention and post-priming protocols. In the prevention protocol, the peptides or solubilized TAChR were administered twice per week for 14 weeks, starting 2 weeks before the beginning of the immunization with TAChR. In the post-priming protocol, peptides or solubilized TAChR were administered twice per week for […], starting 8 weeks after the beginning of the TAChR immunization. Control mice received 100 μl of peptide-free PBS, following the same schedules.
(§2) Immunization 8-10 week old mice were immunized by s.c. injections, along the back and at the base of the tail, of TAChR (a total of 50 μg in 100 μl of PBS for each immunization) emulsified in an equal volume of CFA for the first injection, and IFA for the following two boosts. The mice were injected for a total of three times at 3-4 week intervals. At the end of the observation period, the mice received a third boost, and were sacrificed 5-7 days later. Control mice were injected with clean PBS in the appropriate adjuvant.
Evaluation of the symptoms of EMG The EMG symptoms were quantified using a forced exercise test sensitized by i.p. injection of a minute amount of pancuronium bromide (0.03 mg/kg) just before the test (Karachunski et al., 1995). The mouse hangs from a grid suspended above a soft padding, and the time it takes the mouse to fall three times (‘holding time’) was measured. The test is parametric, and gives a quantitative assessment of the mouse weakness. The myasthenic nature of the weakness was verified by injecting i.p. edrophonium chloride (Reversol, Organon, West Orange, N.J.), which is a cholinesterase inhibitor. […] The mice were tested without knowledge of their treatment. […]

The subject of another data set is serum anti-TAChR Ab. Nature of the data set: Anti-TAChR IgG and IgG1 radioimmunoprecipitation assay (Example IV). The settings on record: s.c. tolerization, prevention protocol. In kind it is in vivo, mouse. As for the experimental part:
Anti-TAChR Ab assay. Sera was obtained from each mouse after each clinical testing and at the end of the observation period (12 weeks after beginning of the TAChR immunization). The serum concentration of anti-TAChR IgG and IgGI was determined by radioimmunoprecipitation assay, using TAChR solubilized in Triton X-100 and labeled by the binding of ^125I-α-BTX (Bellone et al., 1991a). As a secondary Ab, either rabbit anti-mouse IgG produced, or goat anti-mouse IgG1 (Sigma, St. Louis, Mo.), was used. The anti-TAChR Ab concentration is expressed as μM precipitated ^125I-α-BTX binding sites.
Two types of experiments were carried out. In one of them the total anti-TAChR Ab in the sera of individual mice, obtained 8, 10 and 12 weeks after the first TAChR immunization, was determined. In the other, the anti-TAChR IgG1 concentration was determined, as well as the total anti-TAChR IgG concentration, in sera obtained at the end of the observation period. For this second assay pooled sera from five mice that had received identical treatments was used.

Data set [4] concerns EMG in B6 mice immunized with TAChR. Briefly: Subcutaneous tolerization, prevention protocol, EMG symptoms (Example IV). In kind it is in vivo, mouse. The settings on record: s.c. 10 μg/injection. As for the experimental part:
as §1, §2
Evaluation of the symptoms of EMG The EMG symptoms were quantified using a forced exercise test sensitized by i.p. injection of a minute amount of pancuronium bromide (0.03 mg/kg) just before the test (Karachunski et al., 1995). The mouse hangs from a grid suspended above a soft padding, and the time it takes the mouse to fall three times (‘holding time’) was measured. The test is parametric, and gives a quantitative assessment of the mouse weakness. The myasthenic nature of the weakness was verified by injecting i.p. edrophonium chloride (Reversol, Organon, West Orange, N.J.), which is a cholinesterase inhibitor. […] The mice were tested without knowledge of their treatment.
The holding time of normal mice was 10.4±2.1 minutes (n=99). Mice with holding times of 8 minutes or longer were considered normal. Mice with holding times less than 6.2 minutes (the holding time of normal mice minus two SD) were considered to have fully developed EMG. Holding times of 6.2-8 minutes were considered to potentially indicate initial EMG. Normal or sham-immunized mice had occasionally holding times of 6.2-8 minutes, but never less than 6.2 minutes. Paralyzed mice and mice that died of respiratory paralysis are indicated as having holding time of 0 minutes.

`CC[n+]1c(-c2ccccc2)c2cc(N)ccc2c2ccc(N)cc21` [ethidium bromide]: in data set [1], the staining of bronchi result is listed as “increasingly weaker”; the “staining of lung parenchyma” value was “only weak focal signals”; the “staining of nostrils, larynx and trachea” value is “brightly stained”.
Consider “peptide α304-322: synthetic sequence of the human AChR α subunit, universal epitope (STHVMPNWVRKVFIDTIPN; UniProt P02708 324-342, looked up, fragment)”, for which the “recognition by CD4+ cells of MG patients” value in data set [2] was “recognized by the majority of the patients”.
For “solubilized TAChR: Torpedo californica acetylcholine receptor purified from electric organ, solubilized in Triton X-100”, the “mice with holding times of 6.2 or less” value in data set [3] (at 44 weeks, s.c. post-priming protocol) is given as 80%. Further, the “EMG frequency after the s.c. treatment had started” value in data set [3] (s.c. without adjuvant, post-priming protocol) was “very high EMG frequency”. For the same compound, in the data set with serum anti-TAChR Ab, the “effect on anti-TAChR Ab synthesis” value is on record as “delayed but did not ultimately affect”. In data set [4], the “protection from EMG” value is given as “protected from EMG to levels comparable”. Also, in data set [4] (at 12 weeks), the “mice with clear EMG weakness” value is “one of 12” and the “mice with holding times of 6.2-8 minutes” value was “two mice”.
For “α101-137: human AChR α subunit sequence region covered by peptides α101-120 and α118-137 (AIVKFTKVLLQYTGHITWTPPAIFKSYCEIIVTHFPF; UniProt P02708 121-157, looked up, fragment)”, the “recognition by CD4+ cells of MG patients” value in data set [2] was “recognized by the majority of the patients”.
“α403-437: carboxyl-terminal human AChR α subunit sequence covered by peptides α403-421 and α419-437 (AMVMDHILLGVFMLVCIIGTLAVFAGRLIELNQQG; UniProt P02708 423-457, looked up, fragment)”: in data set [2], the “recognition by CD4+ cells of MG patients” value is “recognized by the majority of the patients”.
